The values that follow come from US7618626B2, “Combination treatment for non-hematologic malignancies” (Pfizer Inc, priority 2004, dated 2009).

Read-outs that look alike come from different tables or passages of the source.

For experiment [1], the system named is hormone-receptor-positive breast cancer. The note with it: cited from earlier work.
For experiment [2], the system named is tumors of the transfectant IGF-1R over-expressing NIH-3T3 cell line. Briefly: 3T3-IGF-1R tumor growth in vivo (athymic mice, intraperitoneal administration). The note with it: FIG. 5. As for the experimental part: When incubated with cells, fully human monoclonal antibodies that are highly specific and potent inhibitors of IGF-1-induced receptor autophosphorylation induced down-regulation of IGF-1R by receptor internalization. […] The serum concentration of anti-IGF-1R antibodies that led to 50% growth inhibition was 20 μg/ml at Day 1, and 13 μg/ml at Day 9. Similar anti-tumor studies were extended to human tumor xenograft models. As a single agent, anti-IGF-1R antibodies inhibited the growth of several xenograft models including breast, lung and colorectal carcinomas.

A further experiment addresses T1, IGF-1R (Homo sapiens, UniProt P08069).
T1 construct: expressed in transfected cells; host or cells: NIH-3T3 (mouse fibroblast) transfectant, grown as tumors in athymic mice
Briefly: IGF-1R phosphotyrosine signal in 3T3-IGF-1R tumors. Type of experiment: in vivo. The note with it: FIG. 4.

On to `CC/C(=C(\c1ccccc1)c1ccc(OCCN(C)C)cc1)c1ccccc1` [Tamoxifen], for which the results for the reduction of recurrence in experiment [1] (post-menopausal women) and in experiment [1] (pre-menopausal women) were 40-50% and 30-50%, respectively.

B1: 2.13.2: fully human anti-IGF-1R monoclonal antibody; hybridoma ATCC PTA-2788 (antibody)
heavy: EVQLLESGGGLVQPGGSLRLSCTASGFTFSSYAMNWVRQAPGKGLEWVSAISGSGGTTFYADSVKGRFTISRDNSRTTLYLQMNSLRAEDTAVYYCAKDLGWSDSYYYYYGMDVWGQGTTVTVSSASTKGPSVFPLAPCSRSTSESTAALGCLVKDYFPEPVTVSWNSGALTSGVHTFPAVLQSSGLYSLSSVVTVPSSNFGTQTYTCNVDHKPSNTKVDKTVERKCCVECPPCPAPPVAGPSVFLFPPKPKDTLMISRTPEVTCVVVDVSHEDPEVQFNWYVDGVEVHNAKTKPREEQFNSTFRVVSVLTVVHQDWLNGKEYKCKVSNKGLPAPIEKTISKTKGQPREPQVYTLPPSREEMTKNQVSLTCLVKGFYPSDIAVEWESNGQPENNYKTTPPMLDSDGSFFLYSKLTVDKSRWQQGNVFSCSVMHEALHNHYTQKSLSLSPGK
light: DIQMTQFPSSLSASVGDRVTITCRASQGIRNDLGWYQQKPGKAPKRLIYAASRLHRGVPSRFSGSGSGTEFTLTISSLQPEDFATYYCLQHNSYPCSFGQGTKLEIKRTVAAPSVFIFPPSDEQLKSGTASVVCLLNNFYPREAKVQWKVDNALQSGNSQESVTEQDSKDSTYSLSSTLTLSKADYEKHKVYACEVTHQGLSSPVTKSFNRGEC
Consider B1, for which the “3T3-IGF-1R tumor growth in vivo” value in experiment [2] was “inhibits 3T3-IGF-1R tumor growth in vivo”. The “IGF-1R phosphotyrosine signal in 3T3-IGF-1R tumors” value with IGF-1R is reported as “reduce IGF-1R phosphotyrosine signal”.
